From patent US8859573B2, “Pyrimidinone and pyridinone compounds for use in the treatment of diseases or conditions mediated by Lp-PLA2” (Glaxo Group Limited, priority 2010, dated 2014)
Structures can show the parent of a compound that is named as a salt.

Legend:
[1] = molecular target: T1, recombinant human Lp-PLA2 (Homo sapiens, UniProt Q13093); assay: Recombinant human Lp-PLA2 assay (rhLp-PLA2, PED6 assay); assay type: biochemical; settings: upper limit for pIC50 in this assay is 9.3
T1 sequence (Q13093 22-441): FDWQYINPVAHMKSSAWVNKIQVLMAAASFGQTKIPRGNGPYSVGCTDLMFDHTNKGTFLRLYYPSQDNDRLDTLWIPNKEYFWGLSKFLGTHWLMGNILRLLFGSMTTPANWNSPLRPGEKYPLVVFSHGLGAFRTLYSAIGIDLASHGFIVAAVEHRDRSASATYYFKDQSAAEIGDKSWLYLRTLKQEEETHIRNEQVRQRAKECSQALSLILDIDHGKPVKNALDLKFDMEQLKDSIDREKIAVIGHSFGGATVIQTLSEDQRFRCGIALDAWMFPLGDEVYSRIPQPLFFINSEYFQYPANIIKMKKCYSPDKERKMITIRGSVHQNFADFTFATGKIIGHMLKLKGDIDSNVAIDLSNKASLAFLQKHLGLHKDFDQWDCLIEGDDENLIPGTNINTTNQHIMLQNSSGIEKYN
Description: (1) Recombinant Human Lp-PLA2 Assay (rhLp-PLA2) (Also Referred to as “PED6” Assay)
N-((6-(2,4-dinitrophenyl)amino)-hexanoyl)-2-(4,4-difluoro-5,7-dimethyl-4-bora-3a,4a-diaza-s-indacene-3-pentanoyl)-1-hexadecanoyl-sn-glycero-3-phosphoethanolamine, triethylammonium salt (PED6) is a commercially available fluorescently-labelled phospholipid, which is commercially available from Molecular Probes. There is a quenching para-nitro phenyl (PNP) group in the sn3 position and a Bodipy fluorescein (FL) group in the sn2 position. Upon cleavage with Lp-PLA2, the Bodipy F1 group is liberated and then may result in an increase in fluorescence. Inhibitors of Lp-PLA2 therefore prevent this cleavage and no fluorescent increase is observed.
The PED6 assay was run as an […] 10 μL assay. Compounds source plate was prepared by making 1:3 (by volume) serial dilution of the compounds into pure DMSO on 384-well microplate. Then, 0.01 μL of compounds on compound source plate were transferred into 384 well Greiner 784076 (black) plates by ECHO liquid dispenser. 5 μL of recombinant human Lp-PLA2 enzyme (2 nM rhLp-PLA2 in assay buffer of 50 mM HEPES, pH7.4, 150 mM NaCl, 1 mM CHAPS) was added to each well of the plate with compounds. Plates were centrifuged for 10 sec at 500 rpm. After 30 minutes preincubation, […] substrate (4 μM PED6 [from 5 mM DMSO stock] in assay buffer of 50 mM HEPES, pH7.4, 150 mM NaCl, 1 mM CHAPS) was added to 384 well Greiner 784076 (black) plates. Plates were centrifuged for 10 sec at 500 rpm. Plate was covered to protect from light and incubated for 20 min at room temperature. Plates were read for fluorescence intensity at ex: 480/em: 540 using ViewLux microplate imager. PIC50 data, curve and QC analysis was conducted by using XL fit module in Excel.

Lp-PLA2 from plasma = molecular target: T2, Lp-PLA2 from plasma (Homo sapiens, UniProt Q13093); assay: Lp-PLA2 human plasma assay (Thio-PAF assay); assay type: biochemical; settings: pooled human plasma; read-out: pIC50 values in the thio-PAF assay (converted)
T2 construct: from tissue; host or cells: pooled human plasma
T2 sequence (Q13093 22-441): T1 sequence (Q13093 22-441)
Description: (3) Lipoprotein-Associated Phospholipase A2 (Lp-PLA2) Human Plasma Assay (Also Referred to as “Thio-PAF Assay”)
The human plasma assay utilizes a thioester analog of PAF (phosphatidylcholine), where hydrolysis yields to the formation of a phospholipid containing a free thiol group. The amount of thiol is quantitated continuously by reacting with CPM (7-diethylamino-3-(4′-maleimidylphenyl)-4-methylcoumarin), a maleimide which increases in fluoresence after Michael addition of thiols. This assay may detect the activity of Lp-PLA2 from plasma, as determined by specific inhibition by Lp-PLA2 inhibitors.
The thio-PAF assay was run as a quenched 15 μL assay. Compounds source plate was prepared by making 1:3 (by volume) serial dilution of the compounds into pure DMSO on 384-well microplate. 0.01 μL of compounds on compound source plate were transferred to 384 well Greiner 784076 (black) low-volume plates by ECHO liquid dispenser. 8 μL pooled human plasma, which was previously aliquoted and frozen, was added. Plates were centrifuged for 10 sec at 500 rpm. After 30 minutes preincubation, 2 μL of substrate (2.5 mM thio-PAF, 3.2 mM NEM (N-ethylmaleimide) [made fresh daily in DMSO], and 32 μM CPM [from a DMSO stock] in assay buffer of 50 mM HEPES, pH7.4, 150 mM NaCl, 1 mM CHAPS was added to 384 well Greiner 784076 (black) low-volume plates by BRAVO liquid handling station. Plates were centrifuged for 10 sec at 500 rpm. Plate was covered to protect from light and incubated for 2 min at room temperature. Reaction was quenched with 5 μL of 5% aqueous trifluoroacetic acid (TFA). Plates were covered to protect from light and incubated for 40 min at room temperature. Plates were read at ex: 380/em: 485 using-Envision microplate reader. PIC50 data, curve and QC analysis was conducted by using XLFit module in Excel.

SMILES | IC50 [1] [µM] | IC50 (Lp-PLA2 from plasma) [µM]
O=c1nc(OCCc2ccc(Oc3ccc(Cl)c(C(F)(F)F)c3)cc2)ccn1Cc1cncnc1 [Example 11, 4-{[2-(4-{[4-Chloro-3-(trifluoromethyl)phenyl]oxy}phenyl)ethyl]oxy}-1-(5-pyrimidinylmethyl)-2(1H)-pyrimidinone] | ≤ 0.001 | ≤ 0.1
Cc1ccc(Oc2ccc(COc3ccn(Cc4cnn(C)c4)c(=O)c3)cc2)cc1F [Example 28, 4-[({4-[(3-Fluoro-4-methylphenyl)oxy]phenyl}methyl)oxy]-1-[(1-methyl-1H-pyrazol-4-yl)methyl]-2(1H)-pyridinone] | > 0.01 | –
COc1ncc(Cn2cc(Cl)c(OCCc3cnc(Oc4ccc(Cl)c(C(F)(F)F)c4)c(F)c3)nc2=O)cn1 [Example 32, 5-chloro-4-(2-(6-(4-chloro-3-(trifluoromethyl)phenoxy)-5-fluoropyridin-3-yl)ethoxy)-1-((2-methoxypyrimidin-5-yl)methyl)pyrimidin-2(1H)-one] | ≤ 0.001 | ≤ 0.1
O=c1nc(OCCc2ccc(Oc3ccc(Cl)c(C(F)(F)F)c3)cc2)ccn1Cc1ccncc1 [Example 9, 4-{[2-(4-{[4-Chloro-3-(trifluoromethyl)phenyl]oxy}phenyl)ethyl]oxy}-1-(4-pyridinylmethyl)-2(1H)-pyrimidinone] | ≤ 0.001 | ≤ 0.1
CCn1cc(F)c(OCCc2ccc(Oc3cccc(C(F)(F)F)n3)cc2)nc1=O [Example 63, 1-ethyl-5-fluoro-4-(4-((6-(trifluoromethyl)pyridin-2-yl)oxy)phenethoxy)pyrimidin-2(1H)-one, trifluoroacetic acid salt] | > 0.01 | –
COc1ncc(Cn2cc(C)c(OCCc3ccc(Oc4ccc(F)c(F)c4)nc3)nc2=O)cn1 [Example 70, 4-(2-(6-(3,4-difluorophenoxy)pyridin-3-yl)ethoxy)-1-((2-methoxypyrimidin-5-yl)methyl)-5-methylpyrimidin-2(1H)-one] | > 0.01 | ≤ 1
Cn1cc(Cn2cc(Cl)c(OCc3ccc(Oc4ccc(F)c(F)c4)c(F)c3)nc2=O)cn1 [Example 53, 5-chloro-4-((4-(3,4-difluorophenoxy)-3-fluorobenzyl)oxy)-1-((1-methyl-1H-pyrazol-4-yl)methyl)pyrimidin-2 (1H)-one] | ≤ 0.001 | ≤ 0.1
O=c1nc(OCCc2ccc(Oc3ccc(Cl)c(C(F)(F)F)c3)cc2)ccn1Cc1cccnc1 [Example 10, 4-{[2-(4-{[4-Chloro-3-(trifluoromethyl)phenyl]oxy}phenyl)ethyl]oxy}-1-(3-pyridinylmethyl)-2(1H)-pyrimidinone] | ≤ 0.001 | ≤ 0.1
Cc1cn(Cc2cnn(C)c2)c(=O)nc1OCCc1ccc(Oc2ccc(F)c(F)c2)nc1 [Example 67, 4-(2-(6-(3,4-difluorophenoxy)pyridin-3-yl)ethoxy)-5-methyl-1-((1-methyl-1H-pyrazol-4-yl)methyl)pyrimidin-2(1H)-one] | > 0.01 | ≤ 1
Cc1cn(Cc2cnn(C)c2)c(=O)nc1OCCc1ccc(Oc2ccc(Cl)c(C(F)(F)F)c2)cc1 [Example 66, 4-(4-(4-chloro-3-(trifluoromethyl)phenoxy)phenethoxy)-5-methyl-1-((1-methyl-1H-pyrazol-4-yl)methyl)pyrimidin-2 (1H)-one] | ≤ 0.001 | ≤ 0.1
Cn1cc(Cn2ccc(OCCc3ccc(Oc4ccc(Cl)c(C(F)(F)F)c4)cc3)nc2=O)cn1 [Example 12, 4-{[2-(4-{[4-Chloro-3-(trifluoromethyl)phenyl]oxy}phenyl)ethyl]oxy}-1-[(1-methyl-1H-pyrazol-4-yl)methyl]-2(1H)-pyrimidinone] | ≤ 0.001 | ≤ 0.1
Cn1cc(Cn2ccc(OCc3ccc(Oc4cccc(C(F)(F)F)c4)cc3)cc2=O)cn1 [Example 25, 1-[(1-Methyl-1H-pyrazol-4-yl)methyl]-4-{[(4-{[3-(trifluoromethyl)phenyl]oxy}-phenyl)methyl]oxy}-2(1H)-pyridinone] | > 0.01 | –
COc1ncc(Cn2cc(F)c(OCCc3ccc(Cc4ccc(Cl)c(C(F)(F)F)c4)cc3)nc2=O)cn1 [Example 47, 4-(4-(4-chloro-3-(trifluoromethyl)benzyl)phenethoxy)-5-fluoro-1-((2-methoxypyrimidin-5-yl)methyl)pyrimidin-2(1H)-one] | ≤ 0.001 | ≤ 0.1
CCn1ccc(OCc2ccc(Oc3ccc(Cl)c(C(F)(F)F)c3)cc2)cc1=O [Example 23, 4-{[(4-{[4-Chloro-3-(trifluoromethyl)phenyl]oxy}phenyl)methyl]oxy}-1-ethyl-2(1H)-pyridinone] | > 0.01 | > 10
Cc1cn(Cc2cnn(C)c2)c(=O)nc1OCc1ccc(Oc2ccc(F)c(F)c2)c(C#N)c1 [Example 71, 2-(3,4-difluorophenoxy)-5-(((5-methyl-1-((1-methyl-1H-pyrazol-4-yl)methyl)-2-oxo-1,2-dihydropyrimidin-4-yl)oxy)methyl)benzonitrile] | ≤ 0.001 | ≤ 0.1
O=c1cc(OCc2ccc(Oc3ccc(Cl)c(C(F)(F)F)c3)cc2)ccn1Cc1cncnc1 [Example 26, 4-{[(4-{[4-Chloro-3-(trifluoromethyl)phenyl]oxy}phenyl)methyl]oxy}-1-(5-pyrimidinylmethyl)-2(1H)-pyridinone] | > 0.01 | –
Cc1cccc(Oc2ccc(CCOc3nc(=O)n(Cc4cnn(C)c4)cc3F)cc2)n1 [Example 61, 5-fluoro-1-((1-methyl-1H-pyrazol-4-yl)methyl)-4-(4-((6-methylpyridin-2-yl)oxy)phenethoxy)pyrimidin-2(1H)-one] | > 0.01 | –
Cn1cc(Cn2ccc(OCc3ccc(Oc4ccc(Cl)c(C(F)(F)F)c4)c(C#N)c3)cc2=O)cn1 [Example 22, 2-{[4-Chloro-3-(trifluoromethyl)phenyl]oxy}-5-[({1-[(1-methyl-1H-pyrazol-4-yl)methyl]-2-oxo-1,2-dihydro-4-pyridinyl}oxy)methyl]benzonitrile] | – | ≤ 1
COc1ncc(Cn2cc(F)c(OCCc3ccc(Oc4cccc(C)n4)cc3)nc2=O)cn1 [Example 62, 5-fluoro-1-((2-methoxypyrimidin-5-yl)methyl)-4-(4-((6-methylpyridin-2-yl)oxy)phenethoxy)pyrimidin-2(1H)-one] | > 0.01 | –
Cn1cc(Cn2ccc(CCc3ccc(Oc4cccc(C(F)(F)F)c4)c(C#N)c3)nc2=O)cn1 [Example 20, 5-(2-{1-[(1-Methyl-1H-pyrazol-4-yl)methyl]-2-oxo-1,2-dihydro-4-pyrimidinyl}ethyl)-2-{[3-(trifluoromethyl)phenyl]oxy}benzonitrile] | – | ≤ 1
Cn1cc(Cn2cc(Cl)c(OCCc3ccc(Cc4ccc(Cl)c(C(F)(F)F)c4)cc3)nc2=O)cn1 [Example 44, 5-chloro-4-(4-(4-chloro-3-(trifluoromethyl)benzyl)phenethoxy)-1-((1-methyl-1H-pyrazol-4-yl)methyl)pyrimidin-2(1H)-one] | – | ≤ 0.1
